Results on 13 compounds are retold here after US5183824A, “Azole derivatives and antifungal drugs containing the same as an active component” (Kao Corporation, priority 1989, dated 1993).

One data set relates to Trichophyton sp. The experiment in a line: Antifungal activities (in vitro), MIC on Sabouraud's agar medium. In kind it is cell-based. The conditions noted are these: 168 h, 27° C., growth evaluated seven days after. The method, then:
(§1) A plate of a series of diluted specimen was prepared under steriled conditions using Sabouraud's agar medium (glucose 2%, peptone 1%, agar 1.5%), to which 1 μl of each of the test fungus solutions was inoculated by using a quantitative platinum loop.

In a further data set the test system is Candida sp. Described as above. The conditions noted are these: 48 h, 37° C., growth evaluated two days after. The format is cell-based. As to the method: as §1
For data set [1], the system named is T. mentagrophytes (TIMM 1189). As to the kind of experiment: Antifungal activities (in vivo), guinea pig skin infection, retro-culture. The note with it: guinea pigs, 1% test compound in white petrolatum applied once a day for 6 days from fifth day of inoculation. On the set-up: species or system Hartley white female guinea pigs. The text has this: Hartley white female guinea pigs were used in this test. The back hair were depilated to form a round area having a diameter of 2 cm. 1×10^8microconidia of T. mentagrophytes (TIMM 1189) were inoculated therein for infection. From the fifth day of the inoculation, a composition containing 1% test compound (base: white petrolatum) was applied once a day for 6 consecutive days. Thereafter, the animals were left for 1 day, and slaughtered while removing the blood. The suffered skin was taken, cut and subjected to the retro-culture. The negative ratio of the strain was measured.

The subject of the next data set is C. albicans (TIMM 0144). As to the kind of experiment: Direct cell-membrane damaging (potassium ion leakage). The conditions noted are these: test compound 40 μg/ml, 15 minutes, atomic absorption spectrometry. In kind it is cell-based. As to the method: Direct cell-membrane damaging, which is one of the characteristic actions of azole antifungal drugs, was evaluated.
As a test strain, C. albicans (TIMM 0144) was used. Fresh cultures of C. albicans (TIMM 0144) were washed to make a deionized aqueous solution containing the same at a concentration of 1×10^8 /ml. In the presence of a test compound at a concentration of 40 μg/ml, potassium ion leakage concentration was measured 15 minutes after by way of atomic absorption spectrometry to evaluate the direct cell-membrane damaging.

Another data set is described as follows: Acute toxicity. The note with it: mouse, in vivo, po; dosed orally on mice.

The structures appear in SMILES notation. In brackets after ≈: the same amount, converted by molar mass.

`CC(C)=CCC/C(C)=C/COC(Cn1ccnc1)c1ccccc1[N+](=O)[O-]` (centres unmarked) [Compound 3, 1-[2-((E)-3,7-dimethylocta-2,6-dienyloxy)-2-(2-nitrophenyl)ethyl]-1H-imadazole]: the minimal inhibitory concentration (MIC) with Trichophyton sp. was in the range of 0.16 to 5 µg/mL (≈ 0.433 to 13.5 µM); with Candida sp., 20 to 40 µg/mL (≈ 54.1 to 108 µM).
For `CC(C)=CCC/C(C)=C/COC(Cn1ccnc1)c1ccccc1C(F)(F)F` (centres unmarked) [Compound 4, 1-[2-((E)-3,7-dimethylocta-2,6-dienyloxy)-2-(2-trifluoromethylphenyl)ethyl]-1H-imidazole], the MIC is 1.25 to 20 µg/mL (≈ 3.18 to 51 µM) against Trichophyton sp. and 20 µg/mL (≈ 51 µM) against Candida sp..
With `CC(C)=CCC/C(C)=C/CN(C)C(Cn1ccnc1)c1ccc(Cl)cc1Cl` (centres unmarked) [Compound 9, 1-[2-(2,4-dichlorophenyl)-2-{N-((E)-3,7-dimethylocta-2,6-dienyl)-N-methylamino}ethyl]-1H-imidazole], the “Negative ratio (%)” value in data set [1] was 34%. For the same compound, the values for the minimal inhibitory concentration (MIC) against Trichophyton sp. and in the data set on Candida sp. were 10 to 20 µg/mL (≈ 24.6 to 49.2 µM) and 40 µg/mL (≈ 98.4 µM), respectively.
On to `CC(C)=CCC/C(C)=C/CC/C(C)=C/COC(Cn1ccnc1)c1ccc(Cl)cc1Cl` (centres unmarked) [Compound 2, 1-[2-(2,4-dichlorophenyl)-2-((E,E)-3,7,11-trimethyldodeca-2,6,10-trienyloxy)ethyl]-1H-imidazole], for which the “Potassium ion leakage rate (%)” value in the data set on C. albicans (TIMM 0144) is given as 55%. In addition, the MIC against Trichophyton sp. was 40 to 80 µg/mL (≈ 86.7 to 173 µM); against Candida sp., above 80 µg/mL.
On to `CC(C)=CCC/C(C)=C/COC(Cn1ccnc1)c1ccccc1` (centres unmarked) [Compound 5, 1-[2-((E)-3,7-dimethylocta-2,6-dienyloxy)-2-phenylethyl]-1H-imidazole], for which the figures for the MIC in the data set with Trichophyton sp. and in the data set with Candida sp. were 5 µg/mL (≈ 15.4 µM) and 20 µg/mL (≈ 61.6 µM), respectively.
As for `CC(C)=CCC/C(C)=C/CNC(Cn1ccnc1)c1ccc(Cl)cc1Cl` (centres unmarked) [Compound 8, 1-[2-(2,4-dichlorophenyl)-2-((E)-3,7-dimethylocta-2,6-dienylamino)ethyl]-1H-imidazole], the “Potassium ion leakage rate (%)” value in the data set on C. albicans (TIMM 0144) was determined as 65%. Besides, the “Negative ratio (%)” value in data set [1] was 46%. The MIC in the data set with Trichophyton sp. was 10 to 20 µg/mL (≈ 25.5 to 51 µM); against Candida sp., 40 µg/mL (≈ 102 µM).
`CC(C)=CCC/C(C)=C/COC(Cn1ccnc1)c1ccc(Cl)cc1Cl` (centres unmarked) [Compound 1, 1-[2-(2,4-dichlorophenyl)-2-((E)-3,7-dimethylocta-2,6-dienyloxy)ethyl]-1H-imidazole] returned an LD50 in the data set “Acute toxicity” of at least 1000 mg/kg. Also, the “Potassium ion leakage rate (%)” value with C. albicans (TIMM 0144) came to 81%. Further, the “Negative ratio (%)” value in data set [1] turned out to be 95%. The MIC in the data set on Trichophyton sp. is 5 to 10 µg/mL (≈ 12.7 to 25.4 µM); in the data set with Candida sp., 40 µg/mL (≈ 102 µM).
With `CC(C)=CCC/C(C)=C/CO/N=C(\Cn1ccnc1)c1ccc(Cl)cc1Cl` [Compound 11, (Z)-1-(2,4-dichlorophenyl)-2-(1H-imidazole-1-yl)-O-((E)-3,7-dimethylocta-2,6-dienyl) ethanonoxime], the minimal inhibitory concentration (MIC) in the data set on Trichophyton sp. was 5 to 20 µg/mL (≈ 12.3 to 49.2 µM); against Candida sp., 40 µg/mL (≈ 98.4 µM).
Turning to `Clc1ccccc1C(c1ccccc1)(c1ccccc1)n1ccnc1` [Clotrimazole, clotrimazole, reference compound], in data set [1], the “Negative ratio (%)” value is given as 24%.
Regarding `CC(C)=CCC/C(C)=C/CSC(Cn1ccnc1)c1ccc(Cl)cc1Cl` (centres unmarked) [Compound 10, 1-[2-(2,4-dichlorophenyl)-2-((E)-3,7-dimethylocta-2,6-dienylthio)ethyl]-1H-imidazole], in the data set with C. albicans (TIMM 0144), the “Potassium ion leakage rate (%)” value stood at 47%. In data set [1], the “Negative ratio (%)” value stood at 37%. For the same compound, the MIC against Trichophyton sp. was 20 µg/mL (≈ 48.8 µM); in the data set on Candida sp. it was above 80 µg/mL.
In the case of `CC(C)=CCC/C(C)=C/COC(Cn1cncn1)c1ccc(Br)cc1` (centres unmarked) [Compound 7, 1-[2-(4-bromophenyl)-2-((E)-3,7-dimethylocta-2,6-dienyloxy)ethyl]-1H-triazole], the MIC in the data set on Trichophyton sp. and in the data set on Candida sp. was above 80 µg/mL throughout.
As to `Clc1ccc(COC(Cn2ccnc2)c2ccc(Cl)cc2Cl)c(Cl)c1` (centres unmarked) [Miconazole, miconazole, reference compound], the “Negative ratio (%)” value in data set [1] was found to be 27%.
With `CC(C)=CCC/C(C)=C\COC(Cn1ccnc1)c1ccc(Cl)cc1Cl` (centres unmarked) [Compound 6, 1-[2-(2,4-dichlorophenyl)-2-((Z)-3,7-dimethylocta-2,6-dienyloxy)ethyl]-1H-imidazole], the “Potassium ion leakage rate (%)” value with C. albicans (TIMM 0144) was 74%. In addition, the “Negative ratio (%)” value in data set [1] turned out to be 89%. In addition, the MIC against Trichophyton sp. lay in the range of 5 to 10 µg/mL (≈ 12.7 to 25.4 µM); against Candida sp., 20 to 40 µg/mL (≈ 50.8 to 102 µM).

By MIC is commonly meant the lowest concentration that inhibits growth of the organism. Read a high MIC as a less susceptible organism. As a reminder, the LD50 is the dose at which mortality reaches 50%. Low values mean a more toxic substance, high ones a less toxic substance.
